Data as given in US8697694B2, “Substituted pyridine and pyrimidine derivatives and their use in treating viral infections” (priority 2008, dated 2014).
Read-outs that look alike come from different tables or passages of the source.

Test system: HCV replicon cells
Assay: Cell-based HCV replicon assay (replicon RNA level by real time PCR, Taqman)
Settings: Hepatitis C virus, 72 h, read-out: EC90 (μM) range
Method in brief: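 Readout: ΔCT between NS5B replicon RNA and GAPDH by real-time RT-PCR in lysates harvested on day 3, fitted sigmoidally; EC50 at ΔCT=1, EC90 at ΔCT=3.2. Compounds tested at ten 2-fold dilutions from 25 μM to 1 μM start, 10% FBS, 0.5% DMSO.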

[1] = HCV replicon cells, replicon RNA level by real time PCR, harvested day 3
[2] = HCV replicon cells, harvested on day 3, replicon RNA by real time PCR, calculated EC90 reported as range class
[3] = HCV replicon cells, harvested day 3, replicon RNA by real time PCR, reported as range class
[4] = HCV replicon cells, replicon RNA level by real time PCR (Taqman), harvested on day 3, calculated EC90 reported as range class
[5] = HCV replicon cells, harvested day 3, replicon RNA by real time PCR, given as number

## Cc1nc(NCC(F)(F)F)nc(NC2CCNC2)c1-c1nc2ccccc2s1 (stereo not drawn) [Example 1517]
[1]
  EC90: > 5 µM

## COC[C@@H](Nc1nc(C)c(-c2nc3c(C)nccc3s2)c(N[C@@H]2C[C@H](CO)[C@@H](O)[C@H]2O)n1)c1ccccc1 [Example 1364]
[1]
  EC90: 0.5 to 5 µM

## Cc1nc(NCC(F)(F)F)nc(N[C@@H]2C[C@H](C(C)O)[C@@H](O)[C@H]2O)c1-c1nc2ccccc2s1 (single isomer, unassigned) [Example 1643]
[1]
  EC90: < 0.5 µM

## CCCCCNc1nc(C)c(-c2nc3ccccc3s2)c(N[C@@H]2CC[C@@H](O)[C@H]2O)n1 [Example 327]
[2]
  EC90: < 0.5 µM

## Nc1nc(Cl)c(-c2cc3cc(C(F)(F)F)ccc3o2)c(N[C@@H]2C[C@H](CO)[C@@H](O)[C@H]2O)n1 [Example 108]
[3]
  EC90: > 5 µM

## CCOCCNc1nc(C)c(-c2nc3ccccc3s2)c(N[C@@H]2C[C@H](C(F)F)[C@@H](O)[C@H]2O)n1 [Example 1019]
[4]
  EC90: < 0.5 µM

## Cc1nc(NCC2CC2)nc(N[C@@H]2C[C@H](CO)[C@@H](O)[C@H]2O)c1-c1nc2c(CC(C)C)nccc2s1 [Example 1370]
[1]
  EC90: < 0.5 µM

## Cc1ccc([C@@H](C)Nc2nc(C)c(-c3nc4cnccc4s3)c(N)n2)cc1 [Example 1511]
[1]
  EC90: < 0.5 µM

## COc1ccc(CCNc2nc(C)c(-c3nc4cnccc4s3)c(N[C@@H]3CC[C@@H](O)[C@@]3(C)O)n2)cc1Cl [Example 1818]
[1]
  EC90: 0.5 to 5 µM

## Cc1cc2nc(-c3c(C)nc(NCC(F)(F)F)nc3N[C@@H]3C[C@H](CO)[C@@H](O)[C@H]3O)sc2cc1C [Example 1061]
[4]
  EC90: 0.5 to 5 µM

## CCC(CC)Oc1cc2cc(-c3c(C)nc(NCCOC)nc3N[C@@H]3C[C@H](CO)[C@@H](O)[C@H]3O)oc2c(C)n1 [Example 48]
[5]
  EC90: > 25 µM

## CCc1cc2cc(-c3c(Cl)nc(NCC4CC4)nc3N[C@@H]3C[C@H](CO)[C@@H](O)[C@H]3O)oc2cn1 [Example 503]
[2]
  EC90: < 0.5 µM

## Cc1nc(NCC(F)(F)F)nc(N[C@@H]2C[C@H](CO)[C@@H](O)[C@H]2O)c1-c1nc2ccccc2s1 [Example 125]
[3]
  EC90: < 0.5 µM

## Cc1nc(NC(C)c2ccccn2)nc(N[C@@H]2C[C@H](CO)[C@@H](O)[C@H]2O)c1-c1nc2ccccc2s1 (stereo partly drawn) [Example 1202]
[4]
  EC90: 0.5 to 5 µM

## Cc1nc(NCc2ccc(C(F)(F)F)cc2)nc(N[C@@H]2C[C@H](CO)[C@H]3OC(C)(C)O[C@H]32)c1-c1nc2ccccc2s1 [Example 241]
[2]
  EC90: 0.5 to 5 µM

## CCOc1ccc2nc(-c3c(Cl)nc(N)nc3N[C@@H]3C[C@H](CO)[C@H]4OC(C)(C)O[C@H]43)sc2c1 [Example 195]
[3]
  EC90: < 0.5 µM

## Cc1cc2cc(-c3c(Cl)nc(N(C)C)nc3N[C@@H]3C[C@H](CO)[C@@H](O)[C@H]3O)oc2c(C)n1 [Example 420]
[2]
  EC90: > 5 µM

## Cc1ccc([C@@H](C)Nc2nc(C)c(-c3nc4cnccc4s3)c(N[C@@H]3C[C@H](CO)[C@@H](O)[C@H]3O)n2)cc1 [Example 544]
[4]
  EC90: < 0.5 µM

## OC[C@H]1C[C@@H](Nc2ncnc(Cl)c2-c2nc3ccccc3s2)[C@H](O)[C@@H]1O [Example 118]
[3]
  EC90: > 5 µM

## Cc1nc(NC(C)c2cccnc2)nc(N[C@@H]2C[C@H](CO)[C@@H](O)[C@H]2O)c1-c1nc2ccccc2s1 (stereo partly drawn) [Example 1802]
[1]
  EC90: 0.5 to 5 µM

## Cc1cc(C)cc(CNc2nc(C)c(-c3nc4ccccc4s3)c(N[C@@H]3C[C@H](CO)[C@H]4OC(C)(C)O[C@H]43)n2)c1 [Example 712]
[2]
  EC90: < 0.5 µM

## CCCOCCNc1nc(Cl)c(-c2nc3ccccc3s2)c(N[C@@H]2C[C@H](CO)[C@@H](O)[C@H]2O)n1 [Example 226]
[3]
  EC90: < 0.5 µM

## CCc1nccc2sc(-c3c(C)nc(N[C@H](C)C4CC4)nc3N[C@@H]3C[C@H](CS(C)(=O)=O)[C@@H](O)[C@H]3O)nc12 [Example 1382]
[1]
  EC90: < 0.5 µM

## CN(C)C(=O)c1ccc2oc(-c3c(Cl)nc(N)nc3N[C@@H]3C[C@H](CO)[C@@H](O)[C@H]3O)cc2c1 [Example 168]
[3]
  EC90: > 5 µM

## Cc1nc(C#N)nc(N[C@@H]2C[C@H](CO)[C@H]3OC(C)(C)O[C@H]32)c1-c1nc2ccccc2s1 [Example 1901]
  EC90: > 5 µM

## Cc1nc(N[C@H](C)c2ccc(F)cc2)nc(N[C@@H]2C[C@H](CO)[C@@H](O)[C@H]2O)c1-c1nc2cnccc2s1 [Example 1311]
[4]
  EC90: < 0.5 µM

## Cc1cc2sc(-c3c(C)nc(NCC(F)(F)F)nc3N[C@@H]3C[C@H](CO)[C@@H](O)[C@H]3O)nc2c(C)n1 [Example 1135]
[4]
  EC90: < 0.5 µM

## COCCNc1nc(C)c(-c2nc3ccccc3s2)c(N[C@@H]2C[C@H](CO)[C@@H](O)[C@H]2O)n1 [Example 205]
[3]
  EC90: < 0.5 µM

## CNc1nc(C)c(-c2cc3cc(OC)nc(C)c3o2)c(N[C@@H]2C[C@H](CO)[C@@H](O)[C@H]2O)n1 [Example 17]
[3]
  EC90: < 0.5 µM

## Cc1nc(NCC(F)(F)F)nc(N[C@@H]2C[C@H](C)[C@@H](O)[C@H]2O)c1-c1nc2cnccc2s1 [Example 1633]
[1]
  EC90: < 0.5 µM

## Cc1nc(N[C@@H](C)c2ccccc2)nc(N[C@@H]2C[C@H](CO)[C@@H](O)[C@H]2O)c1-c1nc2cnccc2s1 [Example 1305]
[4]
  EC90: 0.5 to 5 µM

## Cc1nc(N[C@H](C)C2CC2)nc(N[C@@H]2C[C@H](CO)[C@@H](O)C2(C)O)c1-c1nc2cnccc2s1 (stereo partly drawn) [Example 1384]
[1]
  EC90: < 0.5 µM

## Cc1nc(NCCCF)nc(N[C@@H]2C[C@H](CO)[C@@H](O)[C@H]2O)c1-c1nc2ccccc2s1 [Example 127]
[5]
  EC90: 0.7 µM

## Nc1nc(Cl)c(-c2cnccn2)c(N[C@@H]2C[C@H](CO)[C@@H](O)[C@H]2O)n1 [Example 159]
[3]
  EC90: > 5 µM

## Cc1nc(NCc2ccco2)nc(N[C@@H]2C[C@H](CO)[C@H]3OC(C)(C)O[C@H]32)c1-c1nc2ccccc2s1 [Example 1109]
[4]
  EC90: 0.5 to 5 µM

## COc1cc(CNc2nc(C)c(-c3cc4cc(OC)nc(C)c4o3)c(N[C@@H]3C[C@H](CO)[C@H]4OC(C)(C)O[C@H]43)n2)cc(OC)c1 [Example 347]
[2]
  EC90: < 0.5 µM

## Cc1nc(N[C@H](C)c2cccc(F)c2)nc(N[C@@H]2C[C@H](CO)[C@@H](O)[C@H]2O)c1-c1nc2c(C)nccc2s1 [Example 1524]
[1]
  EC90: < 0.5 µM

## Cc1nc(NCC2CC2)nc(N[C@@H]2C[C@H](CO)[C@@H](O)[C@H]2O)c1-c1cc2cc(OCC(C)C)nc(C)c2o1 [Example 1054]
[4]
  EC90: 0.5 to 5 µM

## CN(C)c1ccc2sc(-c3c(Cl)nc(N)nc3N[C@@H]3C[C@H](CO)[C@@H](O)[C@H]3O)nc2c1 [Example 200]
[3]
  EC90: < 0.5 µM

## Cc1nc(O)nc(N[C@@H]2C[C@H](CO)[C@@H](O)[C@H]2O)c1-c1nc2ccccc2s1 [Example 1605]
[1]
  EC90: > 5 µM

## Cc1nc(N[C@H](C)C(F)(F)F)nc(N[C@@H]2C[C@H](CO)[C@@H](O)[C@H]2O)c1-c1nc2c(C)nccc2s1 [Example 1351]
[1]
  EC90: < 0.5 µM

## OC[C@H]1C[C@@H](Nc2nc(NCc3ccc(F)cc3)nc(Cl)c2-c2nc3ccccc3s2)[C@H](O)[C@@H]1O [Example 251]
[2]
  EC90: < 0.5 µM

## CCCOc1ccc2nc(-c3c(Cl)nc(N)nc3N[C@@H]3C[C@H](CO)[C@@H](O)[C@H]3O)sc2c1 [Example 197]
[3]
  EC90: < 0.5 µM

## Cc1nc(NC(CF)CF)nc(N[C@@H]2C[C@H](CO)[C@@H](O)[C@H]2O)c1-c1nc2ccccc2s1 [Example 130]
[2]
  EC90: > 5 µM

## Cc1nc(N[C@H](C)C2CC2)nc(N[C@@H]2C[C@H](C(C)O)[C@@H](O)[C@H]2O)c1-c1nc2cnccc2s1 (stereo partly drawn) [Example 1642]
[1]
  EC90: < 0.5 µM

## CCc1cc2cc(-c3c(C)nc(NCc4nccs4)nc3N[C@@H]3C[C@H](CO)[C@@H](O)[C@H]3O)oc2cn1 [Example 342]
[2]
  EC90: < 0.5 µM

## Cc1nc(NCCOC(F)(F)F)nc(N[C@@H]2C[C@H](CO)[C@@H](O)[C@H]2O)c1-c1nc2ccccc2s1 [Example 1066]
[4]
  EC90: < 0.5 µM

## Cc1cc(CNc2nc(C)c(-c3nc4cnccc4s3)c(N[C@@H]3C[C@H](CO)[C@@H](O)[C@H]3O)n2)on1 [Example 538]
[4]
  EC90: < 0.5 µM

## CCOCCNc1nc(C)c(-c2nc3c(C)nc(OCC)cc3s2)c(N[C@@H]2C[C@H](CO)[C@@H](O)[C@H]2O)n1 [Example 1376]
[1]
  EC90: < 0.5 µM

## Cc1ccc(CNc2nc(C)c(-c3nc4ccccc4s3)c(N[C@@H]3C[C@H](CO)[C@@H](O)[C@H]3O)n2)s1 [Example 497]
[2]
  EC90: < 0.5 µM

## Cc1nc(NCC2CCCCC2)nc(N[C@@H]2C[C@H](CO)[C@@H](O)[C@H]2O)c1-c1nc2ccccc2s1 [Example 323]
[2]
  EC90: < 0.5 µM

## Cc1nc(NCc2cccc(N(C)C)c2)nc(N[C@@H]2C[C@H](CO)[C@@H](O)[C@H]2O)c1-c1nc2ccccc2s1 [Example 1106]
[4]
  EC90: < 0.5 µM

## Cc1nc(NCc2cc(F)cc(F)c2)nc(N[C@@H]2C[C@H](CO)[C@@H](O)[C@H]2O)c1-c1nc2cnccc2s1 [Example 1309]
[4]
  EC90: < 0.5 µM

## Cc1nc(Nc2nccs2)nc(N[C@@H]2C[C@H](CO)[C@@H](O)[C@H]2O)c1-c1nc2ccccc2s1 [Example 1013]
[4]
  EC90: 0.5 to 5 µM

## CCc1cc2cc(-c3c(C)nc(NCc4ccco4)nc3N[C@@H]3C[C@H](CO)[C@@H](O)[C@H]3O)oc2cn1 [Example 705]
[2]
  EC90: < 0.5 µM

## OC[C@H]1C[C@@H](Nc2nc(N3CCC3)nc(Cl)c2-c2nc3ccccc3s2)[C@H](O)[C@@H]1O [Example 413]
[3]
  EC90: 0.5 to 5 µM

## COC[C@H](C)Nc1nc(Cl)c(-c2nc3ccccc3s2)c(N[C@@H]2C[C@H](CO)[C@@H](O)[C@H]2O)n1 [Example 438]
[2]
  EC90: < 0.5 µM

## Nc1nc(Cl)c(-c2cc3cc(-c4ccccc4)ccc3o2)c(N[C@@H]2C[C@H](CO)[C@@H](O)[C@H]2O)n1 [Example 174]
[3]
  EC90: > 5 µM

## CO[C@@H](C)CNc1nc(Cl)c(-c2nc3ccccc3s2)c(N[C@@H]2C[C@H](CO)[C@@H](O)[C@H]2O)n1 [Example 228]
[3]
  EC90: < 0.5 µM

## Cc1nc(NCC(C)(C)C)nc(N[C@H]2C[C@@H](CO)[C@H](O)[C@@H]2O)c1-c1nc2ccccc2s1 [Example 1502]
[1]
  EC90: > 5 µM
